For data set [1], the system named is cats. The experiment in a line: 2-bottle taste choice test, cat water panel, 18-h exposure. It counts as in vivo, domestic cat (Felis catus). As for the experimental part: The minimum panel size was n = 14, but only for one study with 80 mM MSG; in all other cases, the minimum panel size was n = 21. The maximum panel size was n = 24. […] For those cases, we have also reported the number of unique cats, as some cats were present in more than one study. All cats on the panel had previously been habituated and screened for suitability to perform this type of study. […] The cats were re-homed once they completed their tenure at the Waltham Petcare Science Institute, as per standard Waltham practice.
Solutions were made with deionized water (Purite, UK). […] In some cases, salts were purchased instead of the pure compound due to solubility, stability, or availability. For all the solutions, the pH range spanned approximately 5–8.
Choice tests for the taste compound solutions at specific concentrations were run over an 18-h period using a 2-bottle testing apparatus. […] All animal studies conformed with the Mars Animal Research Policy (www.Mars.com) and were approved by the Waltham Animal Welfare and Ethical Review Body.
Using a bespoke statistical analysis toolkit, based on R software (R Foundation, Vienna, Austria), a mixed model analysis was performed on the difference in intake (g) between water solutions, including cat (random) as a factor where appropriate. This was used to test the mean intake difference versus 0, i.e. no difference, at a 5% significance level. The mean difference in intake was reported with a 95% confidence interval. Any data errors (e.g. following manual error such as solution spillage, overflow) were removed from the final data set for analysis.

The test system of data set [2] is cats. Put plainly: Taste choice test, cat water panel, 1-hr exposure. It counts as in vivo, domestic cat (Felis catus). As for the experimental part:
All taste choice tests with 1-hr exposure period were run as outlined in the Materials and Methods, with the following differences. The minimum panel size was n = 24 and the maximum panel size was n = 25. […] The cats were water-restricted for 1-hr prior to the 1-hr water exposure period, with their first meal given in the last 20-min of the water restriction. 50 mL of each test solution was offered to the cats in round water bowls with a maximum capacity 150 mL (Flyte So Fancy, UK), which were held in bespoke bowl holders (TECHNIK – A Division of Syspal Ltd., UK).

The target of data set [3] is T1, cat Tas1r1-Tas1r3 (Felis catus, UniProt A0ABI7Z2I4). The experiment in a line: Calcium mobilization assay (FLIPR) in HEK293T cells expressing cat Tas1r1-Tas1r3 and mGα15i1. Conditions: for Activity as agonist or enhancer of the cat umami receptor: alone and with 0.2 mM IMP. A general note: A change in cytosolic calcium serves as a functional read-out for many receptors and channels.
Method: Cat Tas1r1 and cat Tas1r3 were also stably transfected, but the GeneSwitch system (Invitrogen) was used, resulting in expression which had to be induced by adding 0.1 nM mifepristone to the cells 48 h prior to the experiment. […] Expression constructs were transfected into the HEK293T cell line using Lipofectamine 2000 according to the manufacturer’s recommendations. […] The cell line was maintained in Dulbecco’s MEM High-Glucose supplemented with Glutamax-I (Gibco) and with 10% dialyzed fetal bovine serum, 1% Penicillin/Streptomycin, 100 µg/mL G418, 100 µg/mL Hygromycin, 10 µg/mL Zeocin, 2.5 µg/mL Blasticidin, and 0.5 µg/mL Puromycin.
(§1) These and other test compounds were stored at −20 °C and freshly prepared in the assay buffer on the day of the experiments. […] For the functional expression work, the solubility of amino acids was improved by sonication.
The calcium mobilization experiments were performed using a FLIPR Tetra (Molecular Devices). […] Twenty-four hours later, 0.1 nM mifepristone was added to each well to induce expression of cat Tas1r1 and cat Tas1r3. […] Forty-eight hours after induction with mifepristone, the medium was removed from the cells and 20 μL loading buffer (Tyrode’s buffer + 2 μM Fluo4 AM + 100 μM probenecid) was added, and the plate was incubated for 40 min at 37 °C and then transferred for another 20 min at room temperature. The cells were then washed two times with Tyrode’s buffer using an automated plate washer (Biotek) and incubated for 20 min at room temperature in the dark. The cells were then washed a further two times before being transferred to the FLIPR Tetra.
Concentration–response curves, each with 8 concentration points, were established by plotting signal amplitudes versus agonist concentration. The half maximal effective concentrations (EC50) were identified by nonlinear regression using a variable slope model with the equation Y = Bottom + (X^Hillslope) × (Top-Bottom)/(X^HillSlope + EC50^HillSlope), where Y is the response, and X is the agonist concentration, Top and Bottom are the plateaus in the same units as Y and HillSlope is the Slope factor or Hill slope. All calculations and plots were done using GraphPad Prism 8 (GraphPad Software, CA). […] In these cases, the EC50 was noted as being higher than the maximum concentration used in the assay.

Data set [4] concerns the target T1, cat Tas1r1-Tas1r3. Also on record: method as in Toda et al. 2021. Conditions: ref Toda et al. 2021, cited from earlier work; for Activation of cat Tas1r1-Tas1r3: tested alone.
In data set [5] the test system is cats. Details: method as in Beauchamp et al. 1977. Conditions: 10, 20, 40 and 80 mM versus water, 1-h; ref Beauchamp et al. 1977; cited from earlier work.
In data set [6] the test system is cat Tas1r1 VFT. Also on record: method as in Belloir et al. 2017. Conditions: intrinsic tryptophan fluorescence; ref Belloir et al. 2017; cited from earlier work.
The subject of data set [7] is cats. Particulars: cited from earlier work; for Behavioral response of cats to the solutions: acidic solutions, ref Beauchamp et al. 1977, McGrane et al. 2013.
Data set [8] deals with cats. Also on record: method as in White and Boudreau 1975. Particulars: 0.5, 5.0 and 50.0 mM in 50 mM saline versus 50 mM saline, 24-h; ref White and Boudreau 1975; cited from earlier work.
A short description of data set [9]: Solubility of amino acids in assay buffer / water. Conditions: Tyrode's buffer pH 7.4, sonication.
Method: as §1
The mark [10] stands for this setting: amino acid 25 mM versus L-Serine 25 mM.
Where [11] appears, read: amino acid 25 mM versus L-Tryptophan 25 mM.
[12] abbreviates: amino acid 25 mM versus L-Asparagine 25 mM.

The source of these data is PMC10468298, “Umami taste perception and preferences of the domestic cat (Felis catus), an obligate carnivore” (Chemical Senses, 2023).

Like-named read-outs stand apart in the source and are kept apart here.

T1 sequence (A0ABI7Z2I4 entry or part of it): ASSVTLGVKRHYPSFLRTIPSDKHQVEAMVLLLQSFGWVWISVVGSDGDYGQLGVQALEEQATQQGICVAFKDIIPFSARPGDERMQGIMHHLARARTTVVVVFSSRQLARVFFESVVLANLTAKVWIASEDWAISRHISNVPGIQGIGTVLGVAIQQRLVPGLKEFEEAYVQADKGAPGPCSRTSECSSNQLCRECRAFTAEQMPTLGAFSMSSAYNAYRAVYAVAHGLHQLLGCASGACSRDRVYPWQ
T1 sequence (Q49KI5 25-865, further chain): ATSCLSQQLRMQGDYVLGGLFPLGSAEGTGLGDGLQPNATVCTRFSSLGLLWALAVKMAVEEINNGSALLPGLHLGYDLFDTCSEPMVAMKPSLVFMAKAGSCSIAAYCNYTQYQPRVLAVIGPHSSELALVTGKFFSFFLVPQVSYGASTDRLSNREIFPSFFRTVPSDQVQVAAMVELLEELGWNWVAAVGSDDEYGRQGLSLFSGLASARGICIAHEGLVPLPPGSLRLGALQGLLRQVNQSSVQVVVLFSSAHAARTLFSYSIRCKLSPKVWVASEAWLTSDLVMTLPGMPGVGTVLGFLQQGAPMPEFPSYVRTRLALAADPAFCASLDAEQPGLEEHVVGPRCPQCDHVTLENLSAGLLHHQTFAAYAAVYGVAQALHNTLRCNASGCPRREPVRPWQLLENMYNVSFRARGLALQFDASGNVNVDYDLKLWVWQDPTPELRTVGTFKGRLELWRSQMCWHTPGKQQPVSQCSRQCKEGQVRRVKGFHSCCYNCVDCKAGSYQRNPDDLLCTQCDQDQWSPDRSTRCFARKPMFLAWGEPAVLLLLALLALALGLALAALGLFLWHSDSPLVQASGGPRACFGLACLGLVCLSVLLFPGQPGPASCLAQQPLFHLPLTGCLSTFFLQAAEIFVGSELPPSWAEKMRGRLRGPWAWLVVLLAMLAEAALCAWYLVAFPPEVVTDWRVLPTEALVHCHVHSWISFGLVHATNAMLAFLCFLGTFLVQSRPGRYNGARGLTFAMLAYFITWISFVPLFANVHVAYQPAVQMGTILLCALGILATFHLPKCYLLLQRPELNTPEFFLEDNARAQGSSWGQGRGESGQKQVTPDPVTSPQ

Regarding `Nc1ncnc2c1ncn2[C@@H]1O[C@H](COP(=O)(O)O)[C@@H](O)[C@H]1O` [AMP, Adenosine 5ʹ-monophosphate], the Intake diff. was found to be 25.4 g in data set [1] (nucleotide 5 mM versus water) and 20.6 g in data set [2] (nucleotide 5 mM versus water).

For the molecule `Nc1ccn([C@@H]2O[C@H](COP(=O)(O)O)[C@@H](O)[C@H]2O)c(=O)n1` [CMP, Cytidine 5ʹ-monophosphate], the Intake diff. in [1] (nucleotide 5 mM versus water) is listed as 69.5 g.

One may read the EC50 as the midpoint of the concentration-response curve. With `Nc1nc2c(ncn2[C@@H]2O[C@H](COP(=O)(O)O)[C@@H](O)[C@H]2O)c(=O)[nH]1` [GMP, Guanosine 5ʹ-monophosphate], the EC50 in data set [3] is 0.32 mM. The “Concentration at which the assay started to respond” value in [3] (nucleotide alone) was “around 0.1 mM”; in data set [4] (rat Gα15 chimera), “around 0.01 mM”. For the same molecule, the Intake diff. in data set [1] (nucleotide 5 mM versus water) is listed as 78.8 g. In addition, the “Activation of cat Tas1r1-Tas1r3” value in [4] is “strongly activated”.

As to `NCC(=O)O` [Glycine], the Intake diff. in data set [1] (amino acid 25 mM versus water) is 20.8 g; in [2] (amino acid 25 mM versus water) it was 9.1 g. The “Behavioral response of cats” value in data set [5] was “indifferent”.

On to `C[C@H](N)C(=O)O` [L-Alanine, reference compound], for which the EC50 in data set [3] stood at 15.5 mM. The figures for the Intake diff. in [1] (amino acid 25 mM versus water) and in data set [2] (amino acid 25 mM versus water) were 30.5 g and 16.9 g, respectively. Besides, the “Ligand binding to cat Tas1r1 VFT (conformational change)” value in data set [6] was “active”. Further, the “Behavioral response of cats” value in data set [5] is on record as “may be preferred to water”.

As for `N=C(N)NCCC[C@H](N)C(=O)O` [L-Arginine], the “Ligand binding to cat Tas1r1 VFT (conformational change)” value in data set [6] is “active”.

As for `NC(=O)C[C@H](N)C(=O)O` [L-Asparagine], the half-maximal effective concentration (EC50) in data set [3] (read-out: wIMP EC50, L-amino acid with 0.2 mM IMP) is 15.7 mM. Also, the Intake diff. in data set [1] (setting [10]) is reported as 12.0 g; in data set [1] (setting [11]), -20.9 g; in data set [1] (amino acid 25 mM versus water) it was 35.9 g.

Regarding `N[C@@H](CC(=O)O)C(=O)O` [L-Aspartic acid], the “Activity as agonist or enhancer of the cat umami receptor” value (from here on “Activity as agonist or enhancer”) in [3] was “did not respond”. Moreover, the “Behavioral response of cats to the solutions” value in data set [7] is recorded as “avoided”.

Consider `N[C@@H](CS)C(=O)O` [L-Cysteine], for which the concentration for a half-maximal effect (EC50) in data set [3] is 13.1 mM. In addition, the Intake diff. in data set [1] (amino acid 25 mM versus water) is recorded as 48.3 g; in data set [2] (amino acid 25 mM versus water) it was 27.9 g. The “Ligand binding to cat Tas1r1 VFT (conformational change)” value in data set [6] was “inactive”.

In the case of `N[C@@H](CCC(=O)O)C(=O)O` [L-Glutamic acid], the “Activity as agonist or enhancer” value in data set [3] was “did not respond”. Further, in data set [4], the “Activation of cat Tas1r1-Tas1r3” value was “inactive alone”. Moreover, the “Behavioral response of cats” value in [5] was “avoided”. The “Behavioral response of cats to the solutions” value in data set [7] was “avoided”.

With `N[C@@H](Cc1c[nH]cn1)C(=O)O` [L-Histidine], the “Behavioral response of cats” value in data set [8] is on record as “preferred”. Further, the EC50 in data set [3] came to 9.71 mM. In addition, the Intake diff. in data set [1] (setting [12]) is 77.0 g; in data set [1] (setting [10]), 91.5 g; in data set [1] (setting [11]), 97.0 g; in data set [1] (amino acid 25 mM versus water), 43.7 g. Further, in [6], the “Ligand binding to cat Tas1r1 VFT (conformational change)” value is “active”. Further, in [7] (100 mM, ref McGrane et al. 2013), the “Behavioral preference of cats” value was “significant behavioral preference”.

Regarding `CC[C@H](C)[C@H](N)C(=O)O` [L-Isoleucine], the “Ligand binding to cat Tas1r1 VFT (conformational change)” value in data set [6] is on record as “active”.

Regarding `CC(C)C[C@H](N)C(=O)O` [L-Leucine], the EC50 in [3] turned out to be 31.7 mM. Also, the Intake diff. was found to be 36.6 g in [1] (amino acid 25 mM versus water) and 22.5 g in data set [2] (amino acid 25 mM versus water).

For the molecule `CSCC[C@H](N)C(=O)O` [L-Methionine], the EC50 in [3] was over 30 mM. Besides, the Intake diff. in [1] (amino acid 25 mM versus water) is on record as 35.8 g.

For the molecule `N[C@@H](Cc1ccccc1)C(=O)O` [L-Phenylalanine], the values for the Intake diff. in [1] (amino acid 25 mM versus water) and in data set [2] (amino acid 25 mM versus water) were 34.5 g and 19.4 g, respectively.

Turning to `N[C@@H](CO)C(=O)O` [L-Serine], the EC50 in data set [3] is 14.1 mM. The Intake diff. in data set [1] (amino acid 25 mM versus water) is 25.3 g; in [2] (amino acid 25 mM versus water) it was 18.0 g.

With `N[C@@H](Cc1c[nH]c2ccccc12)C(=O)O` [L-Tryptophan], the “Behavioral response of cats” value in data set [8] is “avoided”. Also, the concentration giving a half-maximal response (EC50) in [3] was determined as 6.32 mM. The Intake diff. in data set [1] (setting [12]) is on record as 20.9 g; in [1] (setting [10]) it was -11.6 g; in data set [1] (amino acid 25 mM versus water), 8.4 g; in data set [2] (amino acid 25 mM versus water) it was 10.0 g. For the same molecule, the “Solubility in assay buffer” value in data set [9] is “insoluble at 60 mM”.

In the case of `N[C@@H](Cc1ccc(O)cc1)C(=O)O` [L-Tyrosine], the half-maximal effective concentration (EC50) in data set [3] was found to be 22.2 mM. In data set [1] (amino acid 2.5 mM versus water), this molecule showed an Intake diff. of -1.8 g.

As to `N[C@@H](CCC(=O)O)C(=O)[O-].[Na+]` [MSG, monosodium glutamate], the Intake diff. in data set [1] (MSG 20 mM versus water) is reported as 22.2 g; in data set [1] (MSG 80 mM versus water) it was -7.9 g.

`NCCS(=O)(=O)O` [Taurine]: the “Activity as agonist or enhancer” value in data set [3] was “inactive”.

In data set [1] (nucleotide 5 mM versus water), `O=c1ccn([C@@H]2O[C@H](COP(=O)(O)O)[C@@H](O)[C@H]2O)c(=O)[nH]1` [UMP, Uridine 5ʹ-monophosphate] registered an Intake diff. of 67.0 g.

As to `O=c1[nH]c(=O)c2ncn([C@@H]3O[C@H](COP(=O)(O)O)[C@@H](O)[C@H]3O)c2[nH]1` [XMP, Xanthosine 5ʹ-monophosphate], the 50% effective concentration (EC50) in data set [3] amounted to 0.48 mM.
